Earlier results as cited in patent US10383918B2, “Compositions in the form of an injectable aqueous solution comprising human glucagon and a statistical co-polyamino acid” (ADOCIA, priority 2016, dated 2019).

Conditions: lyophilizate reconstituted at acidic pH (pH<3)

Substance: H-His-Ser-Gln-Gly-Thr-Phe-Thr-Ser-Asp-Tyr-Ser-Lys-Tyr-Leu-Asp-Ser-Arg-Arg-Ala-Gn-Asp-Phe-Val-Gn-Trp-Leu-Met-Asn-Thr-OH [human glucagon]
- Time to appearance of human glucagon fibrils after the reconstitution: ≤ 24 h
